Assay results reported in patent US8796298B2, “Combination of a B-Raf inhibitor: N-{3-[5-(2-Amino-4-pyrimidinyl)-2-(1,1- dimethylethyl)-1,3-thiazol-4-yl]-2-fluorophenyl}-2,6-difluorobenzenesulfonamide and the Akt inhibitor: N-{ (1S)-2-amino-1-[(3- fluorophenyl)methyl]ethyl}-5-chIoro-4-(4-chIoro- 1 -methyl- 1 H-pyrazol-5-yl)-2-10 …” (GlaxoSmithKline LLC, priority 2009, dated 2014).
Where two headings read alike, the source gives them in different places.

Key:
KM-12 = test: Cell growth inhibition assay (Cell Titer Glo), KM-12; type: cell-based; conditions: Homo sapiens, KM12, 72 h; KM-12 colon; BRAF WT, KRAS WT, PIK3CA WT; 3 days; mean ± std; read-out: IC50 values, Single Agent
Experimental: (§1) Human colon tumor lines, Colo205, DLD1, HCC2998, HCT15, HCT8, HT29, KM-12, LS1034, LS174T, RKO, SW1463, SW480, SW837 and T84, and human breast tumor cell lines EFM19 and MDA-MB-175VII were cultured in RPMI 1640 medium containing 10% fetal bovine serum (FBS).
(§2) All cells were cultured for a minimum of 72 hours prior to cell plating. Cells were assayed in a 96-well tissue culture plate (NUNC 136102) of RPMI medium containing 10% FBS for all cells at 1,000 cells per well. […] ATP levels were determined by adding Cell Titer Glo® (Promega) according to the manufacturer's protocol. Briefly, Cell Titer Glo® was added each plate, incubated for 30 minutes then luminescent signal was read on the SpectraMax L plate reader with a 0.5 sec integration time.
(§3) Inhibition of cell growth was estimated after treatment with compound or combination of compounds for three days and comparing the signal to cells treated with vehicle (DMSO). Cell growth was calculated relative to vehicle (DMSO) treated control wells. […]
(§4) The combination effects on the response scale were quantified by Excess Over Highest Single Agent (EOHSA) based on the concept of nonlinear blending as described in detail by Peterson and Novick (2007) and Peterson (2010) [(2;3) [Peterson and Novick, 2007; Peterson, 2010]. […]

HCT15 = test: Cell growth inhibition assay (Cell Titer Glo), HCT15; type: cell-based; conditions: Homo sapiens, HCT-15, 72 h; HCT15 colon; BRAF WT, KRAS G13D, PIK3CA D549N, E545K; 3 days; mean ± std; read-out: IC50 values, Single Agent
Experimental: as §1, §2, §3, §4

HCC2998 = test: Cell growth inhibition assay (Cell Titer Glo), HCC2998; type: cell-based; conditions: Homo sapiens, HCC 2998, 72 h; HCC2998 colon; BRAF WT, KRAS A146T, PIK3CA WT; 3 days; read-out: IC50 values, Single Agent
Experimental: as §1, §2, §3, §4

LS1034 = test: Cell growth inhibition assay (Cell Titer Glo), LS1034; type: cell-based; conditions: Homo sapiens, LS-1034, 72 h; LS1034 colon; BRAF WT, KRAS A146T, PIK3CA WT; 3 days; read-out: IC50 values, Single Agent
Experimental: as §1, §2, §3, §4

Colo205 = test: Cell growth inhibition assay (Cell Titer Glo), Colo205; type: cell-based, Human; conditions: for IC50: Homo sapiens, COLO 205, 72 h, Colo205 colon, BRAF V600E, KRAS WT, PIK3CA WT, 3 days, mean ± std, read-out: IC50 values, Single Agent
Experimental: as §1
(§5) All cells were cultured for a minimum of 72 hours prior to cell plating. Cells were assayed in a 96-well tissue culture plate (NUNC 136102) of RPMI medium containing 10% FBS for all cells at 1,000 cells per well. Approximately 24 hours after plating, cells were exposed to ten, three-fold serial dilutions of compound or the combination of the two agents at a constant molar to molar ratio of 1:10 Compound A to Compound B in RPMI media containing 10% FBS. Cells were incubated in the presence of compounds for 3 days. ATP levels were determined by adding Cell Titer Glo® (Promega) according to the manufacturer's protocol. Briefly, Cell Titer Glo® was added each plate, incubated for 30 minutes then luminescent signal was read on the SpectraMax L plate reader with a 0.5 sec integration time.
(§6) Inhibition of cell growth was estimated after treatment with compound or combination of compounds for three days and comparing the signal to cells treated with vehicle (DMSO). Cell growth was calculated relative to vehicle (DMSO) treated control wells.
(§7) In general, a CI value <0.9, between 0.9 and 1.1, or >1.1 indicates synergy, additivity and antagonism, respectively. […]
The combination effects on the response scale were quantified by Excess Over Highest Single Agent (EOHSA) based on the concept of nonlinear blending as described in detail by Peterson and Novick (2007) and Peterson (2010) [(2;3) [Peterson and Novick, 2007; Peterson, 2010]. […] For single agent and combination treatments, cells were exposed to compounds at a fixed-dose-ratio, and dose response curves were fit to the experimental data and analyzed using regression models. At specified total dose levels of IC50 along the dose response curve, the dose combination (corresponding to IC50) was determined for making EOHSA statistical inferences.

RKO colon line = test: Cell growth inhibition assay (Cell Titer Glo), RKO; type: cell-based; conditions: Homo sapiens
Experimental: as §1, §5, §6
In general, a CI value <0.9, between 0.9 and 1.1, or >1.1 indicates synergy, additivity and antagonism, respectively. In general, the smaller the CI number, the greater is the strength of synergy.
(§8) The combination effects on the response scale were quantified by Excess Over Highest Single Agent (EOHSA) based on the concept of nonlinear blending as described in detail by Peterson and Novick (2007) and Peterson (2010) [(2;3) [Peterson and Novick, 2007; Peterson, 2010]. EOHSA values are defined as increases in improvement (here, in ‘percentage points’ (ppts) difference) produced by the combination over the best single agent at its component dose level for the combination. For single agent and combination treatments, cells were exposed to compounds at a fixed-dose-ratio, and dose response curves were fit to the experimental data and analyzed using regression models. At specified total dose levels of IC50 along the dose response curve, the dose combination (corresponding to IC50) was determined for making EOHSA statistical inferences.

T84 = test: Cell growth inhibition assay (Cell Titer Glo), T84; type: cell-based; conditions: Homo sapiens, 72 h; T84 colon; BRAF WT, KRAS G13D, PIK3CA E542K; 3 days; read-out: IC50 values, Single Agent
Experimental: as §1, §2, §3, §4

SW1463 = test: Cell growth inhibition assay (Cell Titer Glo), SW1463; type: cell-based; conditions: Homo sapiens, 72 h; SW1463 colon; BRAF WT, KRAS G12C, PIK3CA WT; 3 days; read-out: IC50 values, Single Agent
Experimental: as §1, §2, §3, §4

SW837 = test: Cell growth inhibition assay (Cell Titer Glo), SW837; type: cell-based; conditions: Homo sapiens, 72 h; SW837 colon; BRAF WT, KRAS G12C, PIK3CA WT; 3 days; read-out: IC50 values, Single Agent
Experimental: as §1, §2, §3, §4

DLD1 = test: Cell growth inhibition assay (Cell Titer Glo), DLD1; type: cell-based; conditions: Homo sapiens, DLD-1, 72 h; DLD1 colon; BRAF WT, KRAS G13D, PIK3CA E545K, D549N; 3 days; read-out: IC50 values, Single Agent
Experimental: as §1, §2, §3, §4

[1] = tested on: 10 colon lines without BRAF V600E mutation; test: Cell growth inhibition assay (Cell Titer Glo), colon lines without BRAF V600E mutation; type: cell-based; conditions: Homo sapiens; the other 10 colon lines without BRAF V600E mutation (KRAS wild type or mutated); read-out: IC50s, compound alone
Experimental: All cells were cultured for a minimum of 72 hours prior to cell plating. […] Cells were incubated in the presence of compounds for 3 days. ATP levels were determined by adding Cell Titer Glo® (Promega) according to the manufacturer's protocol. Briefly, Cell Titer Glo® was added each plate, incubated for 30 minutes then luminescent signal was read on the SpectraMax L plate reader with a 0.5 sec integration time.
as §6, §7
as §8, with “EOHSA” for “The combination effects on the response scale were quantified by Excess Over Highest Single Agent (EOHSA) based on the concept of nonlinear blending as described in detail by Peterson and Novick (2007) and Peterson (2010) [(2;3) [Peterson and Novick, 2007; Peterson, 2010]. EOHSA”

HT29 = test: Cell growth inhibition assay (Cell Titer Glo), HT29; type: cell-based, Human
Experimental: as §1, §2, §3, §4

HCT8 = test: Cell growth inhibition assay (Cell Titer Glo), HCT8; type: cell-based; conditions: Homo sapiens, HCT-8, 72 h; HCT8 colon; BRAF WT, KRAS G13D, PIK3CA E545K; 3 days; mean ± std; read-out: IC50 values, Single Agent
Experimental: as §1, §2, §3, §4

EFM19 = test: Cell growth inhibition assay (Cell Titer Glo), EFM19; type: cell-based; conditions: Homo sapiens, EFM-19, 72 h; EFM19 breast; BRAF WT, KRAS WT, PIK3CA WT; 3 days; mean ± std; read-out: IC50 values, Single Agent
Experimental: as §1, §2, §3, §4

SW480 = test: Cell growth inhibition assay (Cell Titer Glo), SW480; type: cell-based; conditions: Homo sapiens, 72 h; SW480 colon; BRAF WT, KRAS G12C, PIK3CA WT; 3 days; mean ± std; read-out: IC50 values, Single Agent
Experimental: as §1, §2, §3, §4

MDA-MB-175VII = test: Cell growth inhibition assay (Cell Titer Glo), MDA-MB-175VII; type: cell-based; conditions: Homo sapiens, 72 h; MDA-MB-175VII breast; BRAF WT, KRAS WT, PIK3CA H1049L; 3 days; mean ± std; read-out: IC50 values, Single Agent
Experimental: as §1, §2, §3, §4

[2] = 72 h, RKO colon, BRAF V600E, KRAS WT, PIK3CA H1047R, 3 days, mean ± std, read-out: IC50 values, Single Agent
[3] = RKO colon line, BRAF V600E and PIK3CA H1047R, single agent, read-out: IC50, compound alone

| IC50 (HT29; Homo sapiens, HT-29, 72 h, HT29 colon, BRAF V600E, KRAS WT, PIK3CA P449T, 3 days, mean ± std, read-out: IC50 values, Single Agent) [µM] | Compound | IC50 (KM-12) [µM] | IC50 (HCT15) [µM] | IC50 (HCC2998) [µM] | IC50 (LS1034) [µM] | sensitivity to compound alone in words (Colo205; Colo205, BRAF V600E mutation line) | IC50 (Colo205) [µM] | IC50 (RKO colon line; [2]) [µM] | IC50 (RKO colon line; [3]) [µM] | IC50 (T84) [µM] | IC50 (SW1463) [µM] | IC50 (SW837) [µM] | IC50 (DLD1) [µM] | IC50 [1] [µM] | sensitivity to compound alone in words (HT29; HT29, BRAF V600E mutation line) | IC50 (HCT8) [µM] | IC50 (EFM19) [µM] | IC50 (SW480) [µM] | IC50 (MDA-MB-175VII) [µM] |
| --- | --- | --- | --- | --- | --- | --- | --- | --- | --- | --- | --- | --- | --- | --- | --- | --- | --- | --- | --- |
|  | CC(C)(C)c1nc(-c2cccc(NS(=O)(=O)c3c(F)cccc3F)c2F)c(-c2ccnc(N)n2)s1 [Compound A, N-{3-[5-(2-Amino-4-pyrimidinyl)-2-(1,1-dimethylethyl)-1,3-thiazol-4-yl]-2-fluorophenyl}-2,6-difluorobenzenesulfonamide] | > 10 | > 10 | > 10 | > 10 | highly sensitive | 0.013 ± 0.004 | 4.2 ± 4.03 | > 1 | > 10 | > 10 | > 10 | > 10 | > 10 | highly sensitive | > 10 | > 10 | > 10 | > 10 |
| 1.43 ± 0.073 | Cn1ncc(Cl)c1-c1cc(C(=O)N[C@H](CN)Cc2cccc(F)c2)sc1Cl [Compound B, N-{(1S)-2-amino-1-[(3-fluorophenyl)methyl]ethyl}-5-chloro-4-(4-chloro-1-methyl-1H-pyrazol-5-yl)-2-thiophenecarboxamide] | 4.45 ± 4.2 | 7.77 ± 1.69 | > 10 | > 10 |  | 3.29 ± 0.242 | 1.35 ± 0.614 | > 1 | > 10 | > 10 | > 10 | > 10 |  |  | 1.55 ± 0.051 | 0.444 ± 0.285 | 6.08 ± 0.154 | 0.844 ± 0.033 |
